From patent US12378231B2, “Small molecules as monoacylglycerol lipase (MAGL) inhibitors, compositions and use thereof” (APOGEE PHARMACEUTICALS, INC., priority 2023, dated 2025) come the findings set out here.

The target in one assay is human recombinant MAGL (Homo sapiens (Human), UniProt Q99685). Nature of the assay: In vitro inhibition of human recombinant MAGL activity (Cayman inhibitor screening kit, 4-nitrophenylacetate hydrolysis). It is filed as biochemical. The source says:
The inhibitory effect of the synthetic chemicals on activity of human recombinant MAGL was studied using commercial inhibitor screening kit (Cayman Chemical). […] The absorbance of the yellow product can be analyzed using the plate reader. […]

The next assay concerns the target human recombinant FAAH (Homo sapiens (Human), UniProt O00519). Nature of the assay: In vitro inhibition of human recombinant FAAH activity (Cayman FAAH inhibitor screening kit, AMC arachidonoyl amide hydrolysis). It is filed as biochemical. An excerpt:
In brief, FAAH hydrolyzes AMC arachidonoyl amide resulting in the release of the fluorescent product, while the inhibitor will inhibit the FAAH activity and thus reduce the fluorescent signal.

Setting [1] is: human recombinant MAGL, read-out: Inhibition on MAGL activity (IC50).

Read-outs that look alike come from different tables or passages of the source. Bounds are passed on as bounds.

Sequence of human recombinant FAAH (O00519 whole entry): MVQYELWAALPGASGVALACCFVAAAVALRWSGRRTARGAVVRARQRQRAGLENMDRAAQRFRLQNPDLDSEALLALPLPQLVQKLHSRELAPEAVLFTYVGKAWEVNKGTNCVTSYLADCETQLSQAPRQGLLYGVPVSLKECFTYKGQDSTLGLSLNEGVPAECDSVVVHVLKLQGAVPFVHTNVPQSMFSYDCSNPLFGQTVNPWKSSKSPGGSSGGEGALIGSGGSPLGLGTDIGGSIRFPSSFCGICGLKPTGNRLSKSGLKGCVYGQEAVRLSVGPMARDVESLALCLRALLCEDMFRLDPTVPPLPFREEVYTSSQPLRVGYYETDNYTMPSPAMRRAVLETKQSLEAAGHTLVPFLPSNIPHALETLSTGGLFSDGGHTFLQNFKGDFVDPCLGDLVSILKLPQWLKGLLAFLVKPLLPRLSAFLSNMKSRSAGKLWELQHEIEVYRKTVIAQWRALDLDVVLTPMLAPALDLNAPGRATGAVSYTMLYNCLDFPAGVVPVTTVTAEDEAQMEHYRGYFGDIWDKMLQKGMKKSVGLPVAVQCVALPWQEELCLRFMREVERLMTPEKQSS
Sequence of human recombinant MAGL (Q99685 whole entry): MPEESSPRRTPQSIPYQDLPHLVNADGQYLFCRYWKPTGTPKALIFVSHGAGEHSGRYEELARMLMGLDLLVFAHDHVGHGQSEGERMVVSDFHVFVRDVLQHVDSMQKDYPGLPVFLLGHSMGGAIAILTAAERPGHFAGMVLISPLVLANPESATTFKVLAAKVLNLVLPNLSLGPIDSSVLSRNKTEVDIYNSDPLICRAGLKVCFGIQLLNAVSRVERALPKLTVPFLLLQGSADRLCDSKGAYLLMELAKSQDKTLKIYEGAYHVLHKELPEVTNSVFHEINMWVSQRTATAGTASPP

Broadly, the IC50 is the concentration that inhibits the measured activity by half. As to “1-(4-((2,3-dihydrobenzo[b][1,4]dioxin-6-yl)(4-methoxyphenyl)methyl)piperazine-1-carbonyl)-1H-benzo[d][1,2,3]triazole-6-carbonitrile and 1-(4-((2,3-dihydrobenzo[b][1,4]dioxin-6-yl)(4-methoxyphenyl)methyl)piperazine-1-carbonyl)-1H-benzo[d][1,2,3]triazole-5-carbonitrile [Example 106]”, the IC50 on human recombinant MAGL (setting [1]) was 1 to 10 nM; at human recombinant FAAH, ~10000 nM.
For “1-(4-((4-methoxyphenyl)(pyridin-3-yl)methyl)piperazine-1-carbonyl)-1H-benzo[d][1,2,3]triazole-6-carbonitrile and 1-(4-((4-methoxyphenyl)(pyridin-3-yl)methyl)piperazine-1-carbonyl)-1H-benzo[d][1,2,3]triazole-5-carbonitrile [Example 103]” the same measures were 1 to 10 nM and 1000 to 10000 nM.
In the same order, the values of “1-(4-(bis(2,3-dihydrobenzo[b][1,4]dioxin-6-yl)methyl)piperazine-1-carbonyl)-1H-benzo[d][1,2,3]triazole-6-carbonitrile and 1-(4-(bis(2,3-dihydrobenzo[b][1,4]dioxin-6-yl)methyl)piperazine-1-carbonyl)-1H-benzo[d][1,2,3]triazole-5-carbonitrile [Example 91]” are 1 to 10 nM and > 50000 nM.
In the same order, the values of “1-(4-(di(pyridin-3-yl)methyl)piperazine-1-carbonyl)-1H-benzo[d][1,2,3]triazole-6-carbonitrile and 1-(4-(di(pyridin-3-yl)methyl)piperazine-1-carbonyl)-1H-benzo[d][1,2,3]triazole-5-carbonitrile [Example 105]” are 10 to 1000 nM and > 10000 nM.
For the molecule `O=C(OC(C(F)(F)F)C(F)(F)F)N1CCN(Cc2ccc(C(F)(F)F)cc2N2CCCC2)CC1` [ABX-1431], the IC50 on human recombinant FAAH was > 50000 nM.
On to `O=C(N1CCN(C(c2ccc3c(c2)COCO3)c2ccc3c(c2)COCO3)CC1)n1cccn1` [Example 1, (4-(bis(4H-benzo[d][1,3]dioxin-6-yl)methyl)piperazin-1-yl)(1H-pyrazol-1-yl)methanone], for which the values for the IC50 at human recombinant MAGL (setting [1]) and at human recombinant FAAH were > 100 nM and > 50000 nM, respectively.
As for `O=C(N1CCN(C(c2ccc3c(c2)COCO3)c2ccc3c(c2)COCO3)CC1)n1cnc(Cl)n1` [Example 2, (4-(bis(4H-benzo[d][1,3]dioxin-6-yl)methyl)piperazin-1-yl)(3-chloro-1H-1,2,4-triazol-1-yl)methanone], the IC50 at human recombinant MAGL (setting [1]) was 1 to 10 nM; at human recombinant FAAH, > 10000 nM.
In the same order, the values of `O=C(OC(C(F)(F)F)C(F)(F)F)N1CCN(C(c2ccc3c(c2)COCO3)c2ccc3c(c2)COCO3)CC1` [Example 3, 1,1,1,3,3,3-hexafluoropropan-2-yl 4-(bis(4H-benzo[d][1,3]dioxin-6-yl)methyl)piperazine-1-carboxylate] are 1 to 20 nM and > 50000 nM.
For the molecule `O=C(Oc1ccc([N+](=O)[O-])cc1)N1CCN(C(c2ccc3c(c2)COCO3)c2ccc3c(c2)COCO3)CC1` [Example 4, 4-nitrophenyl 4-(bis(4H-benzo[d][1,3]dioxin-6-yl)methyl)piperazine-1-carboxylate], the IC50 on human recombinant MAGL was 100 to 1000 nM; on human recombinant FAAH, > 10000 nM.
Take `O=C(Oc1ccc(F)cc1)N1CCN(C(c2ccc3c(c2)COCO3)c2ccc3c(c2)COCO3)CC1` [Example 5, 4-fluorophenyl 4-(bis(4H-benzo[d][1,3]dioxin-6-yl)methyl)piperazine-1-carboxylate]: the IC50 at human recombinant MAGL (setting [1]) is > 100 nM; on human recombinant FAAH it was > 50000 nM.
In the same order, the values of `O=C(ON1C(=O)CCC1=O)N1CCN(C(c2ccc3c(c2)COCO3)c2ccc3c(c2)COCO3)CC1` [Example 6, 2,5-dioxopyrrolidin-1-yl 4-(bis(4H-benzo[d][1,3]dioxin-6-yl)methyl)piperazine-1-carboxylate] are > 100 nM and > 50000 nM.
Regarding `O=C(Oc1ccc(Oc2ccccc2)cc1)N1CCN(C(c2ccc3c(c2)COCO3)c2ccc3c(c2)COCO3)CC1` [Example 7, 4-phenoxyphenyl 4-(bis(4H-benzo[d][1,3]dioxin-6-yl)methyl)piperazine-1-carboxylate], the IC50 on human recombinant MAGL (setting [1]) was > 100 nM; at human recombinant FAAH it was > 10000 nM.
For `O=C(N1CCN(C(c2ccc3c(c2)COCO3)c2ccc3c(c2)COCO3)CC1)n1nnc2ccccc21` [Example 8, (1H-benzo[d][1,2,3]triazol-1-yl)(4-(bis(4H-benzo[d][1,3]dioxin-6-yl)methyl)piperazin-1-yl)methanone] the same measures were 1 to 20 nM and > 20000 nM.
Regarding `O=C(N1CCN(C(c2ccc3c(c2)COCO3)c2ccc3c(c2)COCO3)CC1)n1ccnc1` [Example 9, (4-(bis(4H-benzo[d][1,3]dioxin-6-yl)methyl)piperazin-1-yl)(1H-imidazol-1-yl)methanone], the results for the IC50 at human recombinant MAGL (setting [1]) and at human recombinant FAAH were > 100 nM and > 10000 nM, respectively.
For `O=C(N1CCN(C(c2ccc3c(c2)COCO3)c2ccc3c(c2)COCO3)CC1)n1cncn1` [Example 10, (4-(bis(4H-benzo[d][1,3]dioxin-6-yl)methyl)piperazin-1-yl)(1H-1,2,4-triazol-1-yl)methanone], the half-inhibitory concentration (IC50) on human recombinant MAGL (setting [1]) is 10 to 100 nM; on human recombinant FAAH it was 1000 to 10000 nM.
For the molecule `CCN(C(=O)N1CCN(C(c2ccc3c(c2)COCO3)c2ccc3c(c2)COCO3)CC1)C(C)C` [Example 11, 4-(bis(4H-benzo[d][1,3]dioxin-6-yl)methyl)-N-ethyl-N-isopropylpiperazine-1-carboxamide], the values for the IC50 on human recombinant MAGL (setting [1]) and at human recombinant FAAH were > 100 nM and > 50000 nM, respectively.
Consider `O=C(Oc1ccc2c(c1)CCC2)N1CCN(C(c2ccc3c(c2)COCO3)c2ccc3c(c2)COCO3)CC1` [Example 12, 2,3-dihydro-1H-inden-5-yl 4-(bis(4H-benzo[d][1,3]dioxin-6-yl)methyl)piperazine-1-carboxylate], for which the IC50 on human recombinant MAGL (setting [1]) was > 100 nM; on human recombinant FAAH, > 10000 nM.
In the same order, the values of `O=C(Oc1ccc([N+](=O)[O-])cc1[N+](=O)[O-])N1CCN(C(c2ccc3c(c2)COCO3)c2ccc3c(c2)COCO3)CC1` [Example 13, 2,4-dinitrophenyl 4-(bis(4H-benzo[d][1,3]dioxin-6-yl)methyl)piperazine-1-carboxylate] are > 100 nM and > 10000 nM.
In the same order, the values of `COc1ccc(OC(=O)N2CCN(C(c3ccc4c(c3)COCO4)c3ccc4c(c3)COCO4)CC2)cc1` [Example 14, 4-methoxyphenyl 4-(bis(4H-benzo[d][1,3]dioxin-6-yl)methyl)piperazine-1-carboxylate] are > 100 nM and > 50000 nM.
For `CCC(CC)OC(=O)N1CCN(C(c2ccc3c(c2)COCO3)c2ccc3c(c2)COCO3)CC1` [Example 15, pentan-3-yl 4-(bis(4H-benzo[d][1,3]dioxin-6-yl)methyl)piperazine-1-carboxylate] the same measures were > 100 nM and > 50000 nM.
Take `O=C(OC1CCCCC1)N1CCN(C(c2ccc3c(c2)COCO3)c2ccc3c(c2)COCO3)CC1` [Example 16, cyclohexyl 4-(bis(4H-benzo[d][1,3]dioxin-6-yl)methyl)piperazine-1-carboxylate]: the IC50 on human recombinant MAGL (setting [1]) is > 100 nM; at human recombinant FAAH it was > 50000 nM.
On to `NC(=O)c1cccc(-c2cccc(OC(=O)NC3CCCCC3)c2)c1` [URB597, reference compound], for which the IC50 on human recombinant MAGL (setting [1]) is > 50000 nM.
